Data reported in publication PMC7076352 (Pharmaceutics, 2020).

How the values were obtained:
CYP1A2 = molecular target: T1, CYP1A2 (Rattus norvegicus, UniProt P04799); assay: In vitro cocktail CYP450 activity assay in rat liver microsomes, CYP1A2 (phenacetin probe); details: microsomes
T1 sequence (P04799 1-513): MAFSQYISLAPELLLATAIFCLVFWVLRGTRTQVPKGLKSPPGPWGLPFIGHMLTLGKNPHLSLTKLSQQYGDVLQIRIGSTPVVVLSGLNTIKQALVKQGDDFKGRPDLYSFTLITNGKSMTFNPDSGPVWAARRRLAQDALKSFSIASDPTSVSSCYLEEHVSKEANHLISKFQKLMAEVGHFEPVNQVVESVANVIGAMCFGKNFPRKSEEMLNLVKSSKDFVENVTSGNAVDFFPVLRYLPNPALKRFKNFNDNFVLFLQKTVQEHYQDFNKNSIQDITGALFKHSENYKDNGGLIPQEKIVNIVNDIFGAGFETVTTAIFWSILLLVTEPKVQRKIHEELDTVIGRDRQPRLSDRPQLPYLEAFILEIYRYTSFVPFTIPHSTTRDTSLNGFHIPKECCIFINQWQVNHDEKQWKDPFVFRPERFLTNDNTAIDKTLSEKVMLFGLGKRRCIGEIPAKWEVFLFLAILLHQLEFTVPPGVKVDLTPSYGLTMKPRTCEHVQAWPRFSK
Method: (§1) (OHBUP-[D6]) and 5 nM 4′-hydroxydiclofenac-[^13C6] (OHDIC-[^13C6]) as internal standards (ISs). […]
(§2) standard addition experiments. Each group included four concentration levels. For the PK […]
(§3) The probe compounds, viz. […]
(§4) chosen after incubating all the recruited substrates. In order to assure the linear relationship […]
(§5) The incubation system was also optimized in terms of substrate concentrations. The substrates concentrations of […]

CYP2C19 = assay: in vitro; details: microsomes
Method: as §1, §2, §3, §4, §5

CYP450s = assay: In vitro cocktail CYP450 activity assay, isozyme not given; type: in vitro ADME, SD rat
Method: (OHBUP-[D6]) and 5 nM 4′-hydroxydiclofenac-[^13C6] (OHDIC-[^13C6]) as internal standards (ISs).

CYP2C9 = assay: in vitro; details: microsomes
Method: as §1, §2, §3, §4, §5

CYP2B6 = assay: in vitro; details: microsomes
Method: as §1, §2, §3, §4, §5

CYP3A4 = assay: in vitro; details: microsomes
Method: as §1, §2, §3, §4, §5

CYP2D6 = assay: in vitro; details: microsomes
Method: as §1, §2, §3, §4, §5

CYP2E1 = CYP2E1 (Rattus norvegicus, UniProt P05182); details: microsomes
Chain of CYP2E1 (P05182 whole entry): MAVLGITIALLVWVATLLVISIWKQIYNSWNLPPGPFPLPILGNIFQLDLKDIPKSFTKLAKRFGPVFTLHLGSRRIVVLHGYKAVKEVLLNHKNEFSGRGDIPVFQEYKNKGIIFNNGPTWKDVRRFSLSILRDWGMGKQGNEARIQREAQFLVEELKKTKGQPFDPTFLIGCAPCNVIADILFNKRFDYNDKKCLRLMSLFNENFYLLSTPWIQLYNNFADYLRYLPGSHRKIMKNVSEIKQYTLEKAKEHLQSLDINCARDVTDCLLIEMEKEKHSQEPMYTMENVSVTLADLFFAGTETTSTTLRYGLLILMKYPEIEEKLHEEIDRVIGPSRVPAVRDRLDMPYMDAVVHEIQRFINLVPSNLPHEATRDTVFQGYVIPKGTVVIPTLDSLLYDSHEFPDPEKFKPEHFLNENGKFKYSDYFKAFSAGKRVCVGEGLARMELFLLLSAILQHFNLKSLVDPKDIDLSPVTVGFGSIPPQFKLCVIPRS
Method: For the cocktail assay, the activity is expressed as the percentage of activity remaining comparing with that of a control sample containing no inhibitor. […] All the data were described as mean ± standard deviation (SD). Normality assumptions were tested by the Kolmogorov–Smirnov statistic setting p = 0.10 as the limit for rejection of the null hypothesis of normality. If the distribution of the data was normal with equal variances, a two-sided test was performed at the 5% level of significance. The Welch’s correction was then applied when the underlying variances were not equal. When the assumption of normality must be rejected, the Mann-Whitney test, a non-parametric equivalent of the independent-measures t-test, was used.

SMILES | IC50 (CYP1A2) | IC50 (CYP2C19) | IC50 (CYP450s) | IC50 (CYP2C9) | IC50 (CYP2B6) | IC50 (CYP3A4) | IC50 (CYP2D6) | IC50 (CYP2E1)
O=c1c(OC2O[C@H](CO)[C@@H](O)[C@H](O)[C@H]2O)c(-c2ccc(O)cc2)oc2cc(O)c(O)c(O)c12 (stereo partly shown) [A6, 6-hydoxykaempferol-3-O-glucoside] | 52.8 ± 1.93 µM | 53.67 ± 0.22 µM | ≤ 15 µM | 55.8 ± 3.4 µM | 115 ± 3.04 µM | 26.4 ± 1.39 µM | 19.5 ± 2.83 µM | 40.8 ± 1.65 µM
O=C(/C=C/c1ccc(O)cc1)C1=C(O)C2=C(O[C@H]([C@@H](O)[C@H](O)[C@H](O)CO)[C@H]2C2=C(O)/C(=C(O)/C=C/c3ccc(O)cc3)C(=O)C(O)([C@@H]3O[C@H](CO)[C@@H](O)[C@H](O)[C@H]3O)C2=O)C(O)([C@@H]2O[C@H](CO)[C@@H](O)[C@H](O)[C@H]2O)C1=O (stereo partly shown) [A8, anhydroxysafflor yellow B] | > 200 µM | 111 ± 21.6 µM | ≤ 15 µM | 1.21 ± 0.51 µM | > 200 µM | 34.4 ± 9.16 µM | 10.5 ± 1.11 µM | 9.06 ± 1.85 µM
